# Read-outs that look alike come from different tables or passages of the source.
# Legend:
# lethally irradiated mice = conditions: cited from earlier work
# [1] = system: NIH Swiss mice treated with cisplatinum; conditions: i.p.; cited from earlier work
# [2] = in vivo; cited from earlier work
# [3] = system: NIH Swiss mice treated with cisplatinum; conditions: 10 mg/kg, after two weeks, n=11
# NF-κB [4] = test: NF-κB-regulated luciferase reporter assay in H116 human colon cancer cells; format: cell-based
# Source text: While translocation of NF-κB to the nucleus is a crucial step in induction of NF-κB-regulated inhibitors of apoptosis, it is not sufficient in itself. To directly test the ability of selected fragments to induce expression of NF-κB-regulated genes, we performed reporter assay experiments. Flagellin and the AA′, BB′, A′ and B′ fragments were used for treatment of H116 human colon cancer cells carrying luciferase gene under a NF-κB-responsive promoter. The reporter construct contained three NF-κB-binding sites from the E-selectin promoter combined with a Hsp70 minimal promoter that is routinely used for the detection of NF-κB status of cells. Luciferase activity was measured in cell lysates six hours after addition of flagellin or its truncated fragments into the medium. TNF was used as positive control.
# In order to study the ability of the AA′ fragments to directly activate NF-κB-regulated transcription, we performed reporter assay experiments as described above for a wide range of concentrations of flagellin, original AA′ and AA′-derived fragments.
# NF-κB [5] = test: EMSA of NF-κB translocation / DNA binding in A549 cells; conditions: A549 cells, 1 μg/ml, 45 min, EMSA of whole cell extracts
# NF-κB [6] = test: EMSA of NF-κB binding activity in HT29 human colon cancer cells; format: cell-based; conditions: fragments 1 mg/ml, 15 min
# Protocol: We further minimized the AA′ flagellin fragment by producing additional fragments through stepwise removal of peptide fragments from its N-terminal half (Table 2). […] NF-κB binding activity in HT29 cells was stimulated with TNFa (10 ng/ml), or flagellin fragments (1 mg/ml) for 15 min.
# [7] = system: C57B1/6J mice treated with gamma radiation; conditions: Komarov et al 1999; cited from earlier work
# [8] = system: C57B1/6J mice treated with gamma radiation; test: Radioprotection of mice by p53 inhibitor PFTα; format: in vivo, mouse; conditions: I.P. 10 mg/kg
molecule,measurement,setting,value
"C[C@]12CC[C@H]3[C@@H](CC=C4C[C@@H](O)CC[C@@]43C)[C@@H]1CC[C@@H]2O [5-AED, 5-androstenediol, reference compound]",DMF,lethally irradiated mice; subcutaneous injection in mice 24 h before irradiation,1.26
N.N.[Cl][Pt][Cl] [cisplatinum],maximum tolerable dose [MTD],[1],10 mg/kg
same,beta deterioration,[2],60 min
same,"mean loss in body weight, cisplatinum alone",[3],~30%
"SCF: stem cell factor (SCF, c-kit ligand), hematopoietic cytokine and radioprotectant",DMF,lethally irradiated mice; lethally irradiated mice,1.3-1.35
"AA′n1-170: (1-170)-Linker-(402-505), SEQ ID NO: 30",level of NF-κB-regulated transcription relative to flagellin,"NF-κB [4]; reporter assay, over the studied range of concentrations",comparable to such of flagellin
same,NF-κB reporter activity relative to flagellin,NF-κB [4]; very low concentration range,more active than flagellin
same,NF-κB Stimulation,NF-κB [5],Yes
same,induction of NF-κB translocation,NF-κB [6],induce NF-κB translocation
same,level of NF-κB translocation relative to flagellin,NF-κB [6],comparable to that of flagellin
"Cc1ccc(C(=O)Cn2c3c(sc2=N)CCCC3)cc1 [PFTα, pifithrin-alpha]",lethality of wild type animals receiving 6-11 Gy,[7],could be reduced
same,protection from single 9 Gy and fractioned cumulative 12.5 Gy (5×2.5 Gy),[8],protects
same,survival after single 12.5 and 25 Gy doses of IR,[8],no effect on survival
"Flt-3 ligand: cytokine conferring radioprotection (protein, UniProt P49771 27-235, looked up) Fms-related tyrosine kinase 3 …: TQDCSFQHSPISSDFAVKIRELSDYLLQDYPVTVASNLQDEELCGGLWRLVLAQRWMERLKTVAGSKMQGLLERVNTEIHFVTKCAFQPPPSCLRFVQTNISRLLQETSEQLVALKPWITRQNFSRCLELQCQPDSSTLPPPWSPRPLEATAPTAPQPPLLLLLLLPVGLLLLAAAWCLHWQRTRRRTPRPGEQVPPVPSPQDLLLVEH",DMF,lethally irradiated mice; lethally irradiated mice,> 1.2
same,30-day survival at LD100/30,lethally irradiated mice; mice,70-80%

# From patent US8580321B2, “Method for reducing the effects of chemotherapy using flagellin related polypeptides” (priority 2003, dated 2013)
